In PubChem BioAssay (NCI) one finds GI50 and TGI data, which are given here for 9 compounds.

Test systems include SK-MEL-5 melanoma; M14 melanoma; SK-MEL-2 melanoma; CAKI-1 renal; K-562 leukemia; CCRF-CEM leukemia; HS 578T breast; MCF7 breast.
What all share (assay): NCI-60 cell line screen, 48 h

Structures are written as SMILES.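 Grown in 96-well plates, cells were treated for 48 hours with each compound at five concentrations. Insufficient inhibition: endpoint recorded as highest concentration tested. The concentration for 50% growth inhibition is given as GI50. TGI: concentration producing complete growth inhibition.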 Bounds are passed on as bounds.

On to `O=C(CCCCCCc1nc2ccc(Br)cc2[nH]1)NO`, for which the GI50 in the test with SK-MEL-5 melanoma is 0.328 µM; with M14 melanoma, 0.34 µM; in the test with SK-MEL-2 melanoma, 0.279 µM; in the test on CAKI-1 renal, 0.461 µM; in the test with K-562 leukemia, 0.357 µM; with CCRF-CEM leukemia, 0.405 µM. For the same compound, the GI50 in the test with HS 578T breast was 0.331 µM; in the test with MCF7 breast it was 0.425 µM. The TGI in the test on SK-MEL-5 melanoma was 1.38 µM; in the test on M14 melanoma, 7.51 µM; with SK-MEL-2 melanoma it was 3.87 µM; with CAKI-1 renal, 1.54 µM; with K-562 leukemia, over 100 µM; in the test with CCRF-CEM leukemia it was over 100 µM. Further, the TGI with HS 578T breast is 3.21 µM; in the test on MCF7 breast, over 100 µM.
Regarding `CC/C=C/[C@@H]1C=C[C@@H]2CCC[C@H]2[C@@H]1CC[C@H](O)[C@H](C)N`, the GI50 was 1.69 µM in the test on SK-MEL-5 melanoma; 1.6 µM in the test with M14 melanoma; 2.11 µM in the test on SK-MEL-2 melanoma; 3.73 µM in the test on CAKI-1 renal; 1.38 µM in the test on K-562 leukemia; 4.65 µM in the test with CCRF-CEM leukemia. The results for the GI50 in the test on HS 578T breast and in the test on MCF7 breast were 1.43 µM and 1.52 µM, respectively. In addition, the TGI in the test with SK-MEL-5 melanoma turned out to be 3.16 µM; with M14 melanoma, 2.98 µM; in the test on SK-MEL-2 melanoma it was 4.73 µM; in the test on CAKI-1 renal, 20.5 µM; with K-562 leukemia, 2.67 µM; in the test with CCRF-CEM leukemia, 84.3 µM. Also, the figures for the TGI in the test on HS 578T breast and with MCF7 breast were 3.15 µM and 2.85 µM, respectively.
In the case of `O=c1ccc2nc(-c3ccccc3)nn(-c3ccccc3)c-2c1`, the GI50 was 3.71 µM with SK-MEL-5 melanoma; 1.67 µM with M14 melanoma; 2.28 µM with SK-MEL-2 melanoma; 1.5 µM with CAKI-1 renal; 0.353 µM in the test with K-562 leukemia; 0.274 µM with CCRF-CEM leukemia. Also, the GI50 in the test with HS 578T breast was 2.65 µM; with MCF7 breast, 1.11 µM. Moreover, the TGI in the test with SK-MEL-5 melanoma came to 16.3 µM; with M14 melanoma it was 3.27 µM; in the test on SK-MEL-2 melanoma, 4.45 µM; with CAKI-1 renal, 2.89 µM; with K-562 leukemia, 1.12 µM; in the test on CCRF-CEM leukemia, 1.23 µM. Also, the TGI was determined as 8.47 µM with HS 578T breast and 2.74 µM in the test with MCF7 breast.
`Cc1ncc(C(=O)Nc2ccc(CN3CCN(C)CC3)c(C(F)(F)F)c2)cc1C#Cc1c(N)ncc2ccc(C#N)cc12`: the GI50 with SK-MEL-5 melanoma was 1.1 µM; in the test on M14 melanoma it was 0.029 µM; with SK-MEL-2 melanoma, 1.74 µM; in the test on CAKI-1 renal it was 0.89 µM; in the test on K-562 leukemia it was 0.005 µM; in the test with CCRF-CEM leukemia it was 1.41 µM. The GI50 in the test with HS 578T breast was 0.572 µM; in the test with MCF7 breast, 0.693 µM. Also, the TGI turned out to be 8.59 µM in the test with SK-MEL-5 melanoma; 0.659 µM in the test with M14 melanoma; 17.5 µM in the test on SK-MEL-2 melanoma; 7.22 µM in the test with CAKI-1 renal; 5.3 µM in the test with K-562 leukemia; 16.5 µM in the test with CCRF-CEM leukemia. In addition, the TGI with HS 578T breast worked out at 4.93 µM; with MCF7 breast, 11.4 µM.
Regarding `CC1CN(CCO)CC(C)O1` (stereo unspecified), the TGI in the test with SK-MEL-5 melanoma, in the test with M14 melanoma, in the test on SK-MEL-2 melanoma, in the test on CAKI-1 renal, in the test with K-562 leukemia and with CCRF-CEM leukemia was over 100 µM in each case. Further, the TGI in the test with HS 578T breast and in the test with MCF7 breast was over 100 µM throughout.
For the compound `CC[C@]1(O)C[C@@H]2CN(Cc3c([nH]c4ccccc34)[C@@](C(=O)OC)(c3cc4c(cc3OC)N(C)[C@H]3[C@@](O)(C(=O)OC)[C@H](OC(C)=O)[C@]5(CC)[C@@H]6C[C@@H]6CN6CC[C@]43[C@@H]65)C2)C1`, the GI50 with SK-MEL-5 melanoma is 0.119 µM; in the test with M14 melanoma, 0.135 µM; in the test with SK-MEL-2 melanoma, 0.033 µM; with CAKI-1 renal it was over 4.38 µM; in the test with K-562 leukemia, 0.0279 µM; in the test with CCRF-CEM leukemia, 0.0369 µM. Also, the GI50 in the test on HS 578T breast is 0.0858 µM; in the test on MCF7 breast, 0.0181 µM. The TGI is 1.85 µM in the test with SK-MEL-5 melanoma; over 2.93 µM in the test with M14 melanoma; over 4.38 µM with SK-MEL-2 melanoma; over 4.38 µM in the test with CAKI-1 renal; over 4.38 µM in the test on K-562 leukemia; over 4.38 µM in the test with CCRF-CEM leukemia. The TGI with HS 578T breast was over 1.33 µM; in the test with MCF7 breast it was over 4.38 µM.
Consider `COc1ccccc1/C=C1\COc2ccc(O)c(O)c2C1=O`, for which the GI50 with SK-MEL-5 melanoma is 1.56 µM; in the test with M14 melanoma, 2.19 µM; with SK-MEL-2 melanoma it was 2.72 µM; in the test on CAKI-1 renal, 1.48 µM; in the test on K-562 leukemia, 0.671 µM; in the test with CCRF-CEM leukemia it was 0.286 µM. Besides, the GI50 is 3.6 µM with HS 578T breast and 0.36 µM with MCF7 breast. The TGI in the test with SK-MEL-5 melanoma was 3.18 µM; in the test with M14 melanoma it was 8.38 µM; in the test on SK-MEL-2 melanoma, 8.67 µM; in the test on CAKI-1 renal, 4.15 µM; in the test on K-562 leukemia, 14.1 µM; in the test on CCRF-CEM leukemia it was 2.11 µM. In addition, the TGI in the test on HS 578T breast and in the test on MCF7 breast was over 100 µM each time.
For the compound `O=P(O)(O)OC1C(OP(=O)(O)O)C(OP(=O)(O)O)C(OP(=O)(O)O)C(OP(=O)(O)O)C1OP(=O)(O)O` (stereo unspecified), the GI50 with SK-MEL-5 melanoma is over 1560 µM; in the test on M14 melanoma it was over 2000 µM; with SK-MEL-2 melanoma, over 2000 µM; in the test with CAKI-1 renal, over 1560 µM; with K-562 leukemia it was over 2000 µM; in the test with CCRF-CEM leukemia, over 100 µM. For the same compound, the GI50 in the test with HS 578T breast and with MCF7 breast was over 2000 µM each time. Moreover, the TGI with SK-MEL-5 melanoma, in the test with M14 melanoma, in the test on SK-MEL-2 melanoma, in the test on CAKI-1 renal, in the test with K-562 leukemia and in the test on CCRF-CEM leukemia was over 2000 µM in each case. Moreover, the TGI in the test on HS 578T breast and with MCF7 breast was over 2000 µM in each case.
Take `COc1cc(-c2cc(-c3ccc(N(C)C)cc3)nc(N3CCC(O)CC3)c2C#N)cc(OC)c1OC`: the GI50 was 0.162 µM in the test with SK-MEL-5 melanoma; 0.282 µM in the test on M14 melanoma; 0.37 µM in the test with SK-MEL-2 melanoma; 0.0224 µM in the test with CAKI-1 renal; 0.367 µM in the test on K-562 leukemia; 0.598 µM in the test on CCRF-CEM leukemia. For the same compound, the GI50 with HS 578T breast is 5.66 µM; in the test with MCF7 breast it was 0.626 µM. The TGI in the test on SK-MEL-5 melanoma was 0.508 µM; in the test with M14 melanoma it was 1.3 µM; in the test with SK-MEL-2 melanoma, 1.07 µM; in the test on CAKI-1 renal, 0.7 µM; in the test with K-562 leukemia, 10.5 µM; with CCRF-CEM leukemia, over 100 µM. In addition, the TGI with HS 578T breast is over 100 µM; in the test with MCF7 breast, 3.42 µM.
